Legend:
[1] = test system: human cord blood CD34+ cells; assay: HIV-1 based lentiviral vector transduction of cord blood CD34+ cells, GFP by flow cytometry; format: cell-based; conditions: for transduction efficiency: added with vector or delayed by 2 or 6 hours
p21 mRNA = p21 mRNA quantification by RT-PCR; conditions: cord blood CD34+ cells, 20 μg/ml rapamycin, 6 hours
[2] = test system: stimulated cord blood CD34+ cells; assay: Quantification of HIV-1 reverse transcription products by qPCR; conditions: MOI=25, 20 μg/ml rapamycin
Method: Quantification of HIV-1 reverse transcription products. Stimulated cord blood CD34^+ cells (2-3E5) were transduced with an MOI of 25 in the presence of 20 μg/ml rapamycin or DMSO, and harvested at 6, 12, or 24 hours after the start of transduction by freezing cell pellets at −80° C. Total DNA was extracted using the QiaAmp DNA mini kit, and treated with Dpnl for 2-4 hours to eliminate plasmid DNA. Quantitative PCR was carried out on the Roche LightCycler 480 using previously published primer and probe sequences (Prasad et al., HIV Protocols: Second Edition 485, 2009).

[3] = test system: primitive HSCs (serial repopulating cells); assay: Serial NSG mouse transplantation of transduced cord blood CD34+ cells; format: in vivo, human
Method: (§1) Colony forming assay, NSG mouse reconstitution, and serial transplantation. For colony forming assays, transduced cord blood CD34^+ HSPCs were counted and 100 cells were seeded in 1.5 ml methocult4434 (StemCell Technologies) in 30 mm dishes in triplicate. Total BFU-E, CFU-GM, CFU-M, and CFU-GEMM colonies, as well as GFP+ colonies, were counted 16-18 days after plating using a fluorescent microscope. […] Mice were bled every 4 weeks starting from 8 weeks post injection, and sacrificed at 19 weeks to assess engraftment and GFP expression in the bone marrow, spleen, and thymus by flow cytometry. For serial transplantation, primary recipients were sacrificed at 12 weeks post injection, and bone marrow cells from both femurs of one mouse were injected into two irradiated secondary recipients, which were again sacrificed at 12 weeks post injection for flow cytometric analysis of bone marrow and spleen. NSG mice were maintained at the Scripps Research Institute Molecular and Experimental Medicine animal facility.
To stringently establish transduced cells as primitive HSCs, we carried out serial NSG mouse transplantation with cord blood CD34^+ cells transduced with or without rapamycin. […] Bone marrow cells of secondary recipients were again analyzed 12 weeks post injection.

cord blood CD34+ cells = assay: Colony forming assay and parallel liquid culture of transduced cord blood CD34+ cells; format: cell-based, human; conditions: stimulated cord blood CD34+ cells, MOI=25
Method: as §1
To determine whether primitive HSCs in the heterogeneous CD34^+ population are transduced in the presence of rapamycin, we tested the ability of transduced cord blood CD34^+ cells to engraft irradiated NSG mice. A fraction of transduced cells was assessed in parallel liquid culture and colony forming assays. […]

NSG-repopulating cells = assay: NSG mouse reconstitution with transduced cord blood CD34+ cells (long-term engraftment); format: in vivo, human
Method: as §1
To determine whether primitive HSCs in the heterogeneous CD34^+ population are transduced in the presence of rapamycin, we tested the ability of transduced cord blood CD34^+ cells to engraft irradiated NSG mice. A fraction of transduced cells was assessed in parallel liquid culture and colony forming assays. […] Mice were sacrificed 19 weeks after injection to assess long-term engraftment. […] This four-fold transduction enhancement in NSG-repopulating cells was more pronounced than in parallel liquid culture or CFU assay (FIG. 2C), indicating preferential transduction of primitive HSCs in the presence of rapamycin.

[4] = test system: human cord blood CD34+ cells; assay: Integrase-defective lentiviral vector (IDLV) transduction of cord blood CD34+ cells; conditions: MOI=50, two days after transduction
Method: Human cord blood CD34^+ cells were stimulated for 24 h and transduced with IDLVs, MOI=50, with or without 10 ng/μl rapamycin. GFP expression was assayed by flow cytometry every three days from 2-14 days post transduction. Data represent mean and standard deviation of independent transductions of two separate donors.
Cord blood CD34^+ cells were transduced with IDLVs in the absence or presence of rapamycin, and GFP expression was followed from 2-14 days post transduction.

[5] = NSG mice, 19 weeks after injection

## Cn1cnc(N)c2ncnc1-2 [3-methyadenine, 3-methyladenine]
[1]; autophagosome formation inhibited during transduction
  GFP expression: decreased

## CCC(=O)N1CCN(c2ccc(-n3c(=O)ccc4cnc5ccc(-c6cnc7ccccc7c6)cc5c43)cc2C(F)(F)F)CC1 [Torin 1]
[1]; 5 μM
  in vitro transduction efficiency relative to DMSO control: enhanced
  transduction enhancement compared with rapamycin: comparable

## CO/C1=C\C(C)=C\[C@@H](C)[C@@H](O)[C@@H](C)C/C(C)=C/C=C/[C@H](OC)[C@@H]([C@@H](C)[C@@H](O)[C@H](C)[C@@]2(O)C[C@@H](O)[C@H](C)[C@@H](C(C)C)O2)OC1=O [bafilomycin Al]
[1]
  transduction efficiency: decreased

## CCN(CC)CCCC(C)Nc1ccnc2cc(Cl)ccc12 (stereo not shown) [chloroquine]
[1]
  transduction efficiency: decreased

## CO[C@H]1C[C@@H]2CC[C@@H](C)[C@@](O)(O2)C(=O)C(=O)N2CCCC[C@H]2C(=O)O[C@H]([C@H](C)C[C@@H]2CC[C@@H](O)[C@H](OC)C2)CC(=O)[C@H](C)/C=C(\C)[C@@H](O)[C@@H](OC)C(=O)[C@H](C)C[C@H](C)/C=C/C=C/C=C/1C [rapamycin]
p21 mRNA
  up-regulation in p21 mRNA: 3-5 fold
[2]
  increase in per cell amount of 2-LTR circles: 2-to-3 fold
  increase in per cell amount of viral full-length DNA: 2-to-3 fold
[3]; human hematopoietic stem cells
  gene marking frequency relative to other known methods of treatment: 4-5 fold
[3]; secondary mouse recipients
  EGFP-marked human cell populations in secondary recipients: > 90%
Cord blood CD34+ cells
  efficiency or proportion of colony formation: did not significantly affect
NSG-repopulating cells; 20 μg/ml rapamycin during transduction, 19 weeks, control 20%
  GFP positivity in human CD45+ cells in mouse bone marrow: 80%
NSG-repopulating cells; [5]
  long-term engraftment ability of CD34+ cells: did not impair
  reconstitution levels in bone marrow vs control: not statistically different
[1]; pre-stimulated cord blood CD34+ cells, rapamycin present during transduction, 11-14 days in culture, control 40%
  GFP positivity (percentage of GFP-expressing cells): 80%
[4]
  increase in percentage of GFP expressing cells: 17%

Reference: US20180339066A1, “Methods and Compositions for Enhancing Transduction Efficiency of Retroviral Vectors” (The Scripps Research Institute, priority 2013, published 2018)
